This series has as its system humans. The series can be described thus: Derivation of acceptable daily exposure (ADE). Further details: species or system human. The method, then:
Similarly, potential risk for humans from secondary poisoning is assessed by using the acceptable daily exposure (ADE) value for MPA (T. Pfister, unpublished data), which considers toxicological data as well as human experience and covers all routes of uptake, including sensitive subpopulations, over 365 d/annum, with the combined worst‐case uptake through drinking water and fish. No removal of MPA in drinking water production is assumed, but a default intake of 2 L water and 115 g fish/person and day is assumed (European Commission 2011; Murray‐Smith et al. 2012). This combined uptake is then compared with the ADE.
The ADE was derived based on the available nonclinical and clinical data, with the critical effects identified as 1) immunosuppression and secondary effects thereof and 2) teratogenicity; in addition, the relevance of positive results in genotoxicity tests was assessed (T. Pfister, unpublished data). Based on the NOAEL of 2 mg/kg body weight/d in the 12‐mo oral toxicity study in the rat, an ADE was derived by multiplying this NOAEL by a default body weight of 60 kg for humans and dividing by adjustment factors, namely, 6.2 for extrapolation from rats to humans, 10 for variability between individuals, 1 for study duration of 1 yr for rodents, 5 for severity of systemic toxicity (hematopoiesis, immunotoxicity), and 3 for use of an established NOAEL instead of an NOEL; this derivation results in a first ADE of 0.1 mg MPM/60‐kg person/d. […] The weak clastogenic potential observed at higher doses was considered to be irrelevant at these exposure levels. Because the first ADE was lower than, and therefore also protective of, the second, 0.1 mg MPM/60‐kg person/d was selected as the ADE. Stoichiometrically, this ADE for MPM corresponds to 0.0739 mg MPA/d, which was rounded to 0.075 mg or 75 µg MPA/d. The MTDI for an otter was derived by normalizing the ADE for a 60‐kg human to the otter with a default body mass of 10 kg, resulting in an MTDI of 0.0125 mg or 12.5 µg MPA/10‐kg otter/d.

Read-outs that look alike come from different tables or passages of the source.

On to `COc1c(C)c2c(c(O)c1CC=C(C)CCC(=O)O)C(=O)OC2` [MPA, 6‐(1,3‐dihydro‐4‐hydroxy‐6‐methoxy‐7‐methyl‐3‐oxo‐5‐isobenzofuranyl)‐4‐methyl‐4‐hexenoic acid], for which the “ADE, rounded” value amounted to 75 µg MPA/d and the “ADE, stoichiometric” value was 0.0739 mg MPA/d. For the same compound, for the setting “MPA/d”, the “ADE, rounded” value is given as 0.075 mg.

(Values after article PMC6856805, “Environmental Risk Assessment for the Active Pharmaceutical Ingredient Mycophenolic Acid in European Surface Waters” (Environmental Toxicology and Chemistry, 2019).)
